Measurements reported in US11040937B2, “Amide derivative” (TOHOKU UNIVERSITY, priority 2014, dated 2021).

Tested on: A549 cells
Experiment: Matrix-Invasion assay (Matrigel)
Assay type: cell-based, human
Settings: 10 μmol/L, 48±4 hours, significance level less than 5%
Procedure: As a second test for determining whether or not the physiological function of cells induced by the OPN production is inhibited with a test compound, Matrix-Invasion assay was performed. In this assay, cups (inserts) whose bottom was covered with a membrane having φ8 μm pores coated with collagen or laminin (Matrigel, BD Bioscience) that is an extracellular matrix component and a 24-well plate for inserting the inserts were prepared. […]
Specifically, a fluorescent dye was introduced into A549 cells invading outside the membrane, and then the cells were separated from the membrane to measure their fluorescence intensity. At the same time, a fluorescent dye was introduced into a known number of cells for preparing a calibration curve, and a calibration curve was prepared from their fluorescence intensity. Then, the number of invading cells of a test sample containing an unknown number of cells was determined from the fitted curve. […]
The cells of human non-small cell lung cancer-derived cell line A549 were suspended in DMEM medium containing 10% FCS and 1% P/S at 1.8×10^5 cells/mL to obtain a cell suspension. […] This day was counted as Day 0 of operation. […]

With `COc1ccc(Oc2cccc(C(=O)CCNC(=O)c3ccc(O)cc3)c2N)cc1` [Compound 6, N-(3-(2-Amino-3-(4-methoxyphenoxy)phenyl)-3-oxopropyl)-4-hydroxybenzamide] the “number of invading cells vs control group” value was “significantly inhibited”.
